Experimental data as given in PubChem BioAssay AID1259407 (Chemical Carcinogenesis Research Information System (CCRIS), 2018).
Activity calls are given as the source filed them. The rule behind the calls is not given here.

System: CCRIS mutagenicity, Ames/micronucleus/aberration tests
Assay: CCRIS mutagenicity studies

Structure (SMILES): Cc1cc2ncccc2c2nc(N)n(C)c12
- mutagenic call (End Point: IN VITRO MICRONUCLEUS, Test System: CHL/IU CELLS, Metabolic Activation: RAT, LIVER, S-9, PHENOBARBITAL AND 5,6-BENZOFLAVONE): active; positive
- mutagenic call (Test System: AMES SALMONELLA TYPHIMURIUM, Strain/Indicator: TA98(1,8-DNP6), Metabolic Activation: RAT, LIVER, S-9, Method: STANDARD PLATE): inactive; negative
- mutagenic call (Test System: AMES SALMONELLA TYPHIMURIUM, Strain/Indicator: TA98, Metabolic Activation: HAMSTER, LIVER, HEPATOCYTES, Method: STANDARD PLATE): active; positive
- mutagenic call (Test System: AMES SALMONELLA TYPHIMURIUM, Strain/Indicator: TA98, Metabolic Activation: HUMAN, BLOOD, CYTOSOL, Method: PREINCUBATION): active; positive
- mutagenic call (Test System: AMES SALMONELLA TYPHIMURIUM, Strain/Indicator: TA98, Metabolic Activation: NONE, Method: PREINCUBATION): inactive; negative
- mutagenic call (Test System: AMES SALMONELLA TYPHIMURIUM, Strain/Indicator: TA98, Metabolic Activation: NONE, Method: STANDARD PLATE): inactive; negative
- mutagenic call (Test System: AMES SALMONELLA TYPHIMURIUM, Strain/Indicator: TA98, Metabolic Activation: RAT, LIVER, HEPATOCYTES, AROCLOR 1254, Method: PREINCUBATION): active; positive
- mutagenic call (Test System: AMES SALMONELLA TYPHIMURIUM, Strain/Indicator: TA98, Metabolic Activation: RAT, LIVER, HEPATOCYTES, Method: PREINCUBATION): active; positive
- mutagenic call (Test System: AMES SALMONELLA TYPHIMURIUM, Strain/Indicator: TA98, Metabolic Activation: RAT, LIVER, HEPATOCYTES, Method: STANDARD PLATE): active; positive
- mutagenic call (Test System: AMES SALMONELLA TYPHIMURIUM, Strain/Indicator: TA98, Metabolic Activation: RAT, LIVER, S-9, AROCLOR 1254, Method: PREINCUBATION): active; positive
- mutagenic call (Test System: AMES SALMONELLA TYPHIMURIUM, Strain/Indicator: TA98, Metabolic Activation: RAT, LIVER, S-9, N-BENZYLIMIDAZOLE, Method: PREINCUBATION): active; positive
- mutagenic call (Test System: AMES SALMONELLA TYPHIMURIUM, Strain/Indicator: TA98, Metabolic Activation: RAT, LIVER, S-9, Method: STANDARD PLATE): active; positive
- mutagenic call (Test System: AMES SALMONELLA TYPHIMURIUM, Strain/Indicator: TA98, Metabolic Activation: S-9, Method: STANDARD PLATE): active; positive
- mutagenic call (Test System: AMES SALMONELLA TYPHIMURIUM, Strain/Indicator: TA98, Method: STANDARD PLATE): active; positive
- mutagenic call (Test System: AMES SALMONELLA TYPHIMURIUM, Strain/Indicator: TA100, Metabolic Activation: NONE, Method: PREINCUBATION): inactive; negative
- mutagenic call (Test System: AMES SALMONELLA TYPHIMURIUM, Strain/Indicator: TA100, Metabolic Activation: NONE, Method: STANDARD PLATE): inactive; negative
- mutagenic call (Test System: AMES SALMONELLA TYPHIMURIUM, Strain/Indicator: TA100, Metabolic Activation: RAT, LIVER, S-9, AROCLOR 1254, Method: PREINCUBATION): active; positive
- mutagenic call (Test System: AMES SALMONELLA TYPHIMURIUM, Strain/Indicator: TA100, Metabolic Activation: RAT, LIVER, S=9, AROCLOR 1254, Method: PREINCUBATION): active; positive
- mutagenic call (Test System: AMES SALMONELLA TYPHIMURIUM, Strain/Indicator: TA100, Metabolic Activation: S-9, Method: STANDARD PLATE): active; positive
- mutagenic call (Test System: CHINESE HAMSTER V-79, Strain/Indicator: V-79/6-THIOGUANINE, Metabolic Activation: HAMSTER, PANCREAS DUCT, EPITHELIAL CELLS): active; positive
- mutagenic call (Test System: CHINESE HAMSTER V-79, Strain/Indicator: V-79/6-THIOGUANINE, Metabolic Activation: HUMAN, PANCREAS DUCT, EPITHELIAL CELLS): active; positive
- mutagenic call (Test System: CHINESE HAMSTER V-79, Strain/Indicator: V-79/6-THIOGUANINE, Metabolic Activation: RAT, LIVER, HEPATOCYTES, AROCLOR 1254): active; positive
- mutagenic call (Test System: UDS HAMSTER HEPATOCYTES, Strain/Indicator: THY INCORP, Metabolic Activation: NONE, Method: LIQUID SCINTILLATION COUNTING): active; positive
- mutagenic call (Test System: UDS HUMAN HEPATOCYTES, Strain/Indicator: THY INCORP, Metabolic Activation: NONE, Method: AUTORADIOGRAPHY): active; positive
- mutagenic call (Test System: UDS MOUSE HEPATOCYTES, Strain/Indicator: THY INCORP, Metabolic Activation: NONE, Method: AUTORADIOGRAPHY): active; positive
- mutagenic call (Test System: UDS RAT HEPATOCYTES, Strain/Indicator: THY INCORP, Metabolic Activation: NONE, Method: AUTORADIOGRAPHY): active; positive
- mutagenic call (Test System: UDS RAT HEPATOCYTES, Strain/Indicator: THY INCORP, Metabolic Activation: NONE, Method: LIQUID SCINTILLATION COUNTING): active; positive
